{"source": "patent EP4570244A1", "about": "“ENHANCING AGENT OF CARDIOLIPIN MOLECULAR SPECIES THAT IS MITOCHONDRIAL COMPONENT” (Watanabe Oyster Laboratory Co., Ltd., priority 2022, dated 2024)", "key": {"[1]": {"system": "Human renal proximal tubule cells (HK-2)", "assay": "Cardiolipin measurement by LC-MS/MS in HK-2 cells under oxidative stress stimulation", "assay_type": "cell-based", "protocol": "(§1) Human renal proximal tubule cells (HK-2) were subcultured in Dulbecco's Modified Eagle's Medium (DMEM, Nacalai Tesque) containing 10% fetal bovine serum and 1% penicillin-streptmycin at 37°C in a 5% CO2 incubator. The following experiments were conducted using the oxidative stress inducer to confirm the cardiolipin increase effect of DHMBA on the oxidative stress.\nHK-2 cells were seeded in a 6-well plate at a density of 1.0 × 10^5 cells/well and cultured for 24 hours. The cells were then divided into four groups with different stimulus conditions, and 2 mL thereof was added to each well.\nThe above-described four groups with the different stimulus conditions are as follows.\nControl group (culture medium); oxidative stress group (final concentration 100 µM Oxidative Stress); oxidative stress + DHMBA 250 group (final concentration 100 µM Oxidative Stress + final concentration 250 µM DHMBA); and oxidative stress + DHMBA 500 group (final concentration 100 µM Oxidative Stress + final concentration 500 µM DHMBA).\nAfter 24 hours, the cells were washed twice with phosphate-buffered saline (hereinafter referred to as PBS), and then 1 mL of PBS was added to each well and the cells were recovered using a scraper. In this cell suspension, 100 µL was used for protein quantification by a bicinchoninic acid (BCA) method. The protein concentration was used for correction of the cardiolipin concentration. The remaining cell suspension was centrifuged at 1,200 rpm for 5 minutes, the supernatant was removed, and then the precipitated cells were stored at -80°C.\nFor the cardiolipin measurement, the total intracellular lipids were extracted in the same way as in the previous reports (Chen Z, et al. Metabolomics, 16: 115, 2020).\nIn short, the lipids in the sample were extracted using hexane/isopropanol 3:2 (v/v, with 0.05% butylated hydroxytoluene), and then dried and hardened in an evaporator. Next, the sample was dissolved in methanol (MeOH), and insoluble substances were removed by centrifugation at 15,000 rpm for 15 minutes at 4°C. The total lipids extracted were stored at -80°C. The cardiolipin measurement was performed using LC-MS/MS, following the same procedure as before."}, "CDS2": {"system": "CDS2", "assay": "qPCR expression level of cardiolipin biosynthesis-related gene in HK-2 cells under oxidative stress", "assay_type": "cell-based, Human", "details": "oxidative stress + DHMBA, 24 hours, versus the increase in the oxidative stress group, corrected with β-actin, FIG. 5", "protocol": "as §1\n(§2) HK-2 cells were seeded in a 6-well plate at a density of 5.0 × 10^4 cells/well and cultured for 24 hours.\n(§3) Next, under the same stimulus conditions as described above, 2 mL thereof was added to each well. After 24 hours, total RNA was recovered using NucleoSpin (registered trademark) RNA Kit (MACHEREY-NAGEL). The concentration of the purified RNA was quantified by Nanodrop (Invitrogen). From 1.0 µg of the total RNA, cDNA was synthesized according to a protocol for ReverTra Ace (registered trademark) qPCR RT Master Mix with gDNA Remover (TOYOBO).\n(§4) The gene expression levels were measured according to a protocol for THUNDERBIRD (registered trademark) SYBR (registered trademark) qPCR Mix (TOYOBO). Measurements were performed using a CFX Connect™ real-time PCR analysis system (BioRad), and analyzed using a 2^-(ΔΔCT) method.\n(§5) The gene expression level of the control group was set at 1 for comparison. The figures are expressed as mean ± SD (n = 4 for each group). […]"}, "HADHB": {"system": "HADHB", "assay": "qPCR expression level of cardiolipin remodeling and degradation-related gene in HK-2 cells under oxidative stress", "assay_type": "cell-based, Human", "details": "oxidative stress + DHMBA, 24 hours, corrected with β-actin, FIG. 6", "protocol": "as §1, §2, §3, §4, §5"}, "PNPLA8": {"system": "PNPLA8", "assay": "qPCR expression level of cardiolipin remodeling and degradation-related gene in HK-2 cells under oxidative stress", "assay_type": "cell-based, Human", "details": "oxidative stress + DHMBA, 24 hours, versus the increase in the oxidative stress group, corrected with β-actin, FIG. 6", "protocol": "as §1, §2, §3, §4, §5"}, "[2]": {"details": "oxidative stress + DHMBA, acyl group distribution, FIG. 4"}}, "data": [{"smiles": "COc1c(O)cc(CO)cc1O", "note": "[DHMBA, 3,5-dihydroxy-4-methoxybenzyl alcohol]", "values": [{"measurement": "cardiolipin molecular species", "setting": "[1]; 100 µM oxidative stress inducer + DHMBA (250 or 500 µM), 24 hours, almost all species, FIG. 2", "result": "increased significantly"}, {"measurement": "total cardiolipin content", "setting": "[1]; co-treatment with 100 µM oxidative stress and 250 µM or 500 µM DHMBA, 24 hours, increase, FIG. 3", "result": "about 1.5 times"}, {"measurement": "saturated fatty acid chain FA16:0 of cardiolipin", "setting": "[1]; [2]", "result": "decreased"}, {"measurement": "unsaturated fatty acid chain FA18:1 of cardiolipin", "setting": "[1]; [2]", "result": "increased"}, {"measurement": "unsaturated fatty acid chain FA18:2 of cardiolipin", "setting": "[1]; [2]", "result": "increased"}, {"measurement": "gene expression level of CDS2", "setting": "CDS2", "result": "decreased to the same level as the control group"}, {"measurement": "expression level of HADHB", "setting": "HADHB", "result": "increased"}, {"measurement": "gene expression level of PNPLA8", "setting": "PNPLA8", "result": "decreased to the same level as the control group"}]}]}
